# Measured values published in US11738031B2, “Compositions and methods for preventing or treating muscle conditions” (The Board of Trustees of the Leland Stanford Junior …, priority 2017, dated 2023).
# Where two headings read alike, the source gives them in different places.
# Legend:
# aged MuSCs [1] = test: Aged MuSC proliferation in culture; format: cell-based, mouse
# Procedure: Muscle stem cell culture, treatment and lentiviral infection: Following isolation, we resuspended MuSCs in myogenic cell culture medium containing DMEM/F10 (50:50), 15% FBS, 2.5 ng ml^−1 fibroblast growth factor-2 (FGF-2 also known as bFGF) and 1% penicillin-streptomycin. We seeded MuSC suspensions at a density of 500 cells per cm^2 surface area. We maintained cell cultures at 37° C. in 5% CO2 and changed medium daily. For PGE2, 15-PGDH inhibitor and EP4 receptor antagonist treatment studies, we added 1-200 ng/ml Prostaglandin E2 (Cayman Chemical) (unless specified in the figure legends, 10 ng/ml was the standard concentration used), and/or 1 μM EP4 antagonist (ONO-AE3-208, Cayman Chemical), or 1 μM 15-PGDH inhibitor (SW033291, Cayman Chemical) to the MuSCs cultured on collagen coated dishes for the first 24 h. The cells were then trypsinized and cells reseeded onto hydrogels for an additional 6 days of culture. All treatments were compared to their solvent (DMSO) vehicle control. For stripped serum assays, we resuspended isolated MuSCs in medium containing DMEM/F10 (50:50), 15% charcoal stripped FBS (Gibco, cat #12676011), 2.5 ng ml^−1 bFGF and 1% penicillin-streptomycin. […]
# Proliferation assays: To assay proliferation, we used three different assays (hemocytometer, VisionBlue, and EdU). […] For hemocytometer cell number count, we collected cells at indicated timepoints by incubation with 0.5% trypsin in PBS for 5 min at 37° C. and quantified them using a hemocytometer at least 3 times. Additionally, we used the VisionBlue Quick Cell Viability Fluorometric Assay Kit (BioVision, catalog #K303) as a readout for cell growth in culture. Briefly, we incubated MuSCs with 10% VisionBlue in culture medium for 3 h, and measured fluorescence intensity on a fluorescence plate reader (Infinite M1000 PRO, Tecan) at Ex=530-570 nm, Em=590-620 nm. […] We quantified EdU positive cells using the MetaMorph Image Analysis software (Molecular Devices). Data analyses were blinded, where researchers performing cell scoring were unaware of the treatment condition given to sample groups analyzed.
# [2] = system: cyclic AMP levels in MuSCs; test: cAMP activity assay (cAMP-Glo); format: cell-based, mouse; details: PGE2 10 ng/ml, 1 hr
# Procedure: cAMP activity assay: MuSCs were treated with DMSO (vehicle) or PGE2 (10 ng/ml) for 1 h and cyclic AMP levels measured according to the cAMP-Glo Assay protocol optimized by the manufacturer (Promega). Each sample was assayed in triplicate and in two independent experiments.
# MuSCs were treated with DMSO (vehicle) or PGE2 (10 ng/ml) for 1 h and cyclic AMP levels measured according to the cAMP-Glo Assay protocol optimized by the manufacturer (Promega). Each sample was assayed in triplicate and in two independent experiments.
# aged MuSCs [3] = test: Clonal aged MuSC proliferation and fate by time-lapse microscopy (48 h); format: cell-based, mouse
# Text: Clonal muscle stem cell proliferation and fate analyses: We assayed clonal muscle stem cell proliferation by time-lapse microscopy as previously described^56. Briefly, we treated isolated aged MuSCs with PGE2 (Cayman Chemical) or vehicle (DMSO) for 24 hr. After five days of growth on hydrogels, cells were reseeded at a density of 500 cells per cm^2 surface area in hydrogel microwells with 600 μm diameter. For time-lapse microscopy we monitored cell proliferation for those wells with single cells beginning 12 hr (day 0) to two days after seeding and recorded images every 3 min at 10× magnification using a PALM/AxioObserver Z1 system (Carl Zeiss MicroImaging) with a custom environmental control chamber and motorized stage. We changed medium every other day in between the acquisition time intervals. We analyzed time-lapse image sequences using the Baxter Algorithms for Cell Tracking and Lineage Reconstruction to identify and track single cells and generate lineage trees^5,6,8-10.
# Viable and dead cells were distinguished in time-lapse sequences based on phase-contrast boundary and motility maintenance or loss, respectively. […] The values were estimated using the equations described in^6, and found in Table 1. We denote the proliferation rates in the two intervals p24 and p48 and the corresponding death rates d24 and d48. […] The modeled cell counts in the two time intervals are given by […]
# TA muscles = test: In vivo muscle force after downhill treadmill exercise, aged mice, TA; parameters: species or system mouse; details: aged (18-22 mo) mice, 10 μg PGE2 after each run in week 1, force at week 5
# Procedure: FIGS. 5Q and 5R show twitch force and tetanic force data, respectively, from a separate experiment in which mice were treated with PGE2 or vehicle only. Importantly, we observed an increase in isometric force in aged (18-22 mo) mice injected with PGE2 and subjected to downhill treadmill exercise. Briefly, aged mice ran daily (at 20 degrees downhill and 14 meter/min maximum speed for 10 min) for 5 days and rested on days 6 and 7. This eccentric exercise regime leads to MuSC expansion due to a cycle of muscle degeneration and regeneration. […] During week 2, mice were subjected to 5 days treadmill run only.
# [4] = cited from earlier work; for half-life: in vivo
# [5] = PGE2 20 μg (or 4 mg/kg); cited from earlier work
# [6] = aged MuSC clones, acute PGE2 treatment, time-lapse 48 h
# [7] = first 24 hour interval, aged MuSCs
# [8] = second 24 hour interval, aged MuSCs
# [9] = transient 1 day PGE2, 48 h tracking
structure (smiles),measurement,setting,value
"CCCCC[C@H](O)/C=C/[C@H]1[C@H](O)CC(=O)[C@@H]1C/C=C\CCCC(=O)O [PGE2, prostaglandin E2]",aged MuSC proliferation in charcoal stripped serum medium,aged MuSCs [1]; PGE2 10 ng/ml every two days for 7 days,rescued by addition of PGE2 alone
same,aged MuSC proliferation and Pax7 expression after 1-day pulse,"aged MuSCs [1]; PGE2 10 ng/ml or SW033291 1 μM, 24 hr, assayed at day 7",characteristic increase in proliferation and maintenance of Pax7 expression
same,intracellular cAMP levels,[2],elevated downstream intracellular cyclic AMP (cAMP) levels
same,percent increase in dead cell count,aged MuSCs [3]; [6],0.1%
same,percent increase in live cell count,aged MuSCs [3]; [6],5.4%
same,"d24, estimated death rate",aged MuSCs [3]; [7],0.0067 per hours
same,"p24, estimated proliferation rate",aged MuSCs [3]; [7],0.0475 per hours
same,"d48, estimated death rate",aged MuSCs [3]; [8],0.0012 per hours
same,"p48, estimated proliferation rate",aged MuSCs [3]; [8],0.0538 per hours
same,cell death in aged MuSC clones,aged MuSCs [3]; [9],profound reduction in cell death
same,proliferation of aged MuSC clones,aged MuSCs [3]; [9],marked increase in proliferation
same,cumulative cell numbers of aged MuSC clones,"aged MuSCs [3]; transient 1 day PGE2, 48 h tracking, spanning 6 generations",remarkable increase in cumulative cell numbers
same,force (twitch and tetanic) of TA muscles,TA muscles,significant increase in force
same,half-life in vivo,[4],relatively short
same,half-life,[4],5 min
same,half-life,[4]; listed as Dinoprostone,less than 5 minutes
same,tolerability of proposed maximum dose in rodents,[5],without deleterious effects
